Laboratory results from BindingDB's records for doi:10.1016/j.bmcl.2009.04.079 (China Pharmaceutical University, 2009).
Where a name gives a salt, the structure may show the parent alone.

Experiment: Inhibition of NHE1-mediated rat platelet swelling

Which IC50 does the source give for COc1ccc(CN2CCN(Cc3ccc(C(=O)NC(=N)N)cc3S(N)(=O)=O)CC2)c(OC)c1OC [N-(diaminomethylene)-3-sulfamoyl-4-((4-(2,3,4-trimethoxybenzyl)piperazin-1-yl)methyl)benzamide hydrochloride] here?
Its IC50 is 11.5 nM.

Which IC50 does the source give for COc1ccc(CN2CCN(Cc3cc(C(=O)NC(=N)N)ccc3[N+](=O)[O-])CC2)c(OC)c1OC [N-(diaminomethylene)-4-nitro-3-((4-(2,3,4-trimethoxybenzyl)piperazin-1-yl)methyl)benzamide hydrochloride] here?
The IC50 was 14.2 nM.

With COc1ccc(CN2CCN(C(C)c3ccc(C(=O)NC(=N)N)cc3)CC2)c(OC)c1OC (stereo unspecified) [N-(diaminomethylene)-4-(1-(4-(2,3,4-trimethoxybenzyl)piperazin-1-yl)ethyl)benzamide hydrochloride] as the compound, how does the IC50 read?
The IC50 was 40.5 nM.

With COc1ccc(CN2CCN(Cc3cccc(C(=O)NC(=N)N)c3)CC2)c(OC)c1OC [N-(diaminomethylene)-3-((4-(2,3,4-trimethoxybenzyl)piperazin-1-yl)methyl)benzamide hydrochloride] as the compound, how does the IC50 read?
Its IC50 is 36.5 nM.

Which IC50 does the source give for COc1ccc(CN2CCN(Cc3ccc(C(=O)NC(=N)N)cc3)CC2)c(OC)c1OC [N-(diaminomethylene)-4-((4-(2,3,4-trimethoxybenzyl)piperazin-1-yl)methyl)benzamide hydrochloride] here?
Its IC50 is 36.4 nM.

Which IC50 does the source give for COc1ccc(CN2CCN(C(C)c3ccc(C(=O)NC(=N)N)cc3[N+](=O)[O-])CC2)c(OC)c1OC (stereo unspecified) [N-(diaminomethylene)-3-nitro-4-(1-(4-(2,3,4-trimethoxybenzyl)piperazin-1-yl)ethyl)benzamide hydrochloride] here?
Its IC50 is 18.7 nM.

With COc1ccc(CN2CCN(Cc3ccccc3C(=O)NC(=N)N)CC2)c(OC)c1OC [N-(diaminomethylene)-2-((4-(2,3,4-trimethoxybenzyl)piperazin-1-yl)methyl)benzamide hydrochloride] as the compound, how does the IC50 read?
The IC50 was 11.1 nM.

For COc1ccc(CN2CCN(Cc3ccc(C(=O)NC(=N)N)cc3Br)CC2)c(OC)c1OC [3-bromo-N-(diaminomethylene)-4-((4-(2,3,4-trimethoxybenzyl)piperazin-1-yl)methyl)benzamide hydrochloride], which IC50 is on record?
The IC50 was 248 nM.

With CNS(=O)(=O)c1cc(C(=O)NC(=N)N)ccc1CN1CCN(Cc2ccc(OC)c(OC)c2OC)CC1 [N-(diaminomethylene)-3-(N-methylsulfamoyl)-4-((4-(2,3,4-trimethoxybenzyl)piperazin-1-yl)methyl)benzamide hydrochloride] as the compound, how does the IC50 read?
The IC50 was 15 nM.

For COc1ccc(CN2CCN(Cc3ccc(C(=O)NC(=N)N)cc3[N+](=O)[O-])CC2)c(OC)c1OC, which IC50 is on record?
The IC50 was 3.6 nM.

For CCCNS(=O)(=O)c1cc(C(=O)NC(=N)N)ccc1CN1CCN(Cc2ccc(OC)c(OC)c2OC)CC1 [N-(diaminomethylene)-3-(N-propylsulfamoyl)-4-((4-(2,3,4-trimethoxybenzyl)piperazin-1-yl)methyl)benzamide hydrochloride], which IC50 is on record?
Its IC50 is 1150 nM.
